Results reported in the supplement of paper PMC6045584.
± gives the standard deviation of the averaged measurements.

Experiments:
AFATINIB = compound: CN(C)C/C=C/C(=O)Nc1cc2c(Nc3ccc(F)c(Cl)c3)ncnc2cc1O[C@H]1CCOC1 [AFATINIB]; assay: area under dose-response curve of surviving fraction (unscaled, Aref=0) (surviving fraction x log10(nM)); higher = more resistant; conditions: exposure time: 5 days; dose range 0.5-1000 nM
How it was run: (§1)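 Three screens per tumour cell line were run in 384-well plates at eight inhibitor concentrations from 0.5 to 1000 nM over five days. Surviving fractions, from CellTiter-Glo luminescence normalised to DMSO-only wells, were fitted with 3-parameter logistic curves in the drc R package. The reported area under the curve is the unscaled activity area. It spans log10 dose, and Aref is 0.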

SAPACITABINE = compound: CCCCCCCCCCCCCCCC(=O)Nc1ccn([C@@H]2O[C@H](CO)[C@@H](O)[C@@H]2C#N)c(=O)n1 [SAPACITABINE]; assay: as above; conditions: exposure time: 5 days; dose range 0.5-1000 nM
How it was run: as §1

TIOGUANINE = compound: Nc1nc2[nH]cnc2c(=S)[nH]1 [TIOGUANINE]; assay: as above; conditions: exposure time: 5 days; dose range 0.5-1000 nM
How it was run: as §1

[1] = compound: Cn1cc(C2=Nc3cc(NC(=O)C(N)C4CCCCC4)cc4c3C2=CNNC4=O)cn1; assay: as above; conditions: exposure time: 5 days; dose range 0.5-1000 nM
How it was run: as §1

MDV3100 = compound: CNC(=O)c1ccc(N2C(=S)N(c3ccc(C#N)c(C(F)(F)F)c3)C(=O)C2(C)C)cc1F [MDV3100]; assay: surviving fraction relative to DMSO-only wells; higher = less growth inhibition; conditions: exposure time: 5 days
How it was run: (§2)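 Surviving fraction is CellTiter-Glo luminescence divided by the median of wells given DMSO only. For this, log-phase tumour cell lines went into 384-well plates at 250–500 cells per well and, 24 hours later, into five days of continuous inhibitor exposure at 0.5, 1, 5, 10, 50, 100, 500 and 1000 nM. Lines were screened three times and retained only if replicate Pearson r >0.7 and median Z' >0.3.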

BI-2536 = compound: CC[C@@H]1C(=O)N(C)c2cnc(Nc3ccc(C(=O)NC4CCN(C)CC4)cc3OC)nc2N1C1CCCC1 [BI-2536]; assay: as above; conditions: exposure time: 5 days
How it was run: as §2

| Test System | area under dose-response curve (AFATINIB) | area under dose-response curve (SAPACITABINE) | area under dose-response curve (TIOGUANINE) | area under dose-response curve [1] | surviving fraction (MDV3100; 0.5 nM) | surviving fraction (MDV3100; 1 nM) | surviving fraction (MDV3100; 5 nM) | surviving fraction (MDV3100; 10 nM) | surviving fraction (MDV3100; 50 nM) | surviving fraction (MDV3100; 100 nM) | surviving fraction (MDV3100; 500 nM) | surviving fraction (MDV3100; 1000 nM) | surviving fraction (BI-2536; 0.5 nM) | surviving fraction (BI-2536; 1 nM) | surviving fraction (BI-2536; 5 nM) | surviving fraction (BI-2536; 10 nM) | surviving fraction (BI-2536; 50 nM) | surviving fraction (BI-2536; 100 nM) | surviving fraction (BI-2536; 500 nM) | surviving fraction (BI-2536; 1000 nM) |
| --- | --- | --- | --- | --- | --- | --- | --- | --- | --- | --- | --- | --- | --- | --- | --- | --- | --- | --- | --- | --- |
| SCC90 HEADNECK | 1.7 | 3.07 | 3.22 | 2.53 | 0.893 ± 0.093 | 0.91 ± 0.076 | 1.04 ± 0.11 | 0.942 ± 0.1 | 1.17 ± 0.2 | 1.03 ± 0.13 | 0.86 ± 0.054 | 0.925 ± 0.099 | 0.939 ± 0.12 | 0.461 ± 0.057 | 0.075 ± 0.0044 | 0.0887 ± 0.0087 | 0.148 ± 0.007 | 0.198 ± 0.022 | 0.217 ± 0.036 | 0.138 ± 0.011 |
| SG32 HEADNECK | 2.94 | 1.91 | 3.59 | 2.65 | 1.21 ± 0.56 | 0.976 ± 0.13 | 0.988 ± 0.033 | 0.794 ± 0.073 | 1.16 ± 0.17 | 1 ± 0.3 | 1.01 ± 0.044 | 1.09 ± 0.26 | 1.22 ± 0.12 | 1.07 ± 0.18 | 0.32 ± 0.017 | 0.296 ± 0.022 | 0.292 ± 0.0097 | 0.294 ± 0.043 | 0.204 ± 0.014 | 0.16 ± 0.02 |
| SG43 HEADNECK | 1.3 | 3.5 | 2.96 | 3.31 | 0.866 ± 0.21 | 1.01 ± 0.25 | 0.913 ± 0.11 | 0.952 ± 0.14 | 0.702 ± 0.11 | 0.998 ± 0.28 | 1.17 ± 0.06 | 1.16 ± 0.065 | 0.902 ± 0.22 | 1.04 ± 0.23 | 0.734 ± 0.16 | 0.715 ± 0.099 | 0.454 ± 0.079 | 0.323 ± 0.12 | 0.17 ± 0.051 | 0.0543 ± 0.014 |
| SIHA CERVIX | 3.2 | 3.12 | 3.01 | 3.22 | 0.88 ± 0.024 | 0.824 ± 0.067 | 0.999 ± 0.038 | 0.97 ± 0.057 | 1.01 ± 0.076 | 0.975 ± 0.043 | 0.875 ± 0.086 | 0.844 ± 0.055 | 1.11 ± 0.027 | 1.04 ± 0.065 | 0.351 ± 0.025 | 0.263 ± 0.031 | 0.262 ± 0.016 | 0.301 ± 0.0078 | 0.214 ± 0.014 | 0.147 ± 0.015 |
| SUM44 BREAST | 3.18 | 2.51 | 3.39 | 1.84 | 0.963 ± 0.096 | 0.978 ± 0.08 | 1.06 ± 0.081 | 1.04 ± 0.058 | 1.13 ± 0.13 | 1.09 ± 0.1 | 1.03 ± 0.071 | 1.01 ± 0.1 | 0.797 ± 0.039 | 0.378 ± 0.025 | 0.163 ± 0.0069 | 0.166 ± 0.022 | 0.158 ± 0.0027 | 0.154 ± 0.013 | 0.162 ± 0.013 | 0.1503 ± 0.00058 |
| SYO1 SYNOVIAL | 2.96 | 1.23 | 2.43 | 1.84 | 0.989 ± 0.036 | 0.883 ± 0.051 | 0.946 ± 0.018 | 0.546 ± 0.027 | 0.91 ± 0.023 | 0.914 ± 0.032 | 0.987 ± 0.05 | 0.653 ± 0.023 | 1.02 ± 0.015 | 0.884 ± 0.045 | 0.108 ± 0.036 | 0.0738 ± 0.015 | 0.0606 ± 0.0062 | 0.0441 ± 0.0071 | 0.0205 ± 0.0005 | 0.0188 ± 0.0014 |
| T47D BREAST | 3.42 | 2.9 | 3.35 | 3.35 | 0.9561 ± 0.0072 | 0.988 ± 0.044 | 0.983 ± 0.021 | 0.894 ± 0.035 | 1.1 ± 0.015 | 1.02 ± 0.036 | 1.03 ± 0.047 | 0.999 ± 0.041 | 0.981 ± 0.018 | 0.871 ± 0.016 | 0.551 ± 0.017 | 0.488 ± 0.01 | 0.374 ± 0.019 | 0.53 ± 0.035 | 0.2606 ± 0.0011 | 0.276 ± 0.011 |
| U2OS BONE | 3.19 | 2.92 | 3.25 | 2.85 | 1.003 ± 0.0095 | 1.02 ± 0.022 | 1.01 ± 0.027 | 1.01 ± 0.018 | 1.04 ± 0.026 | 1.03 ± 0.018 | 1.06 ± 0.033 | 0.999 ± 0.047 | 1.04 ± 0.027 | 1.05 ± 0.063 | 0.902 ± 0.023 | 0.302 ± 0.023 | 0.215 ± 0.0062 | 0.199 ± 0.01 | 0.188 ± 0.0087 | 0.171 ± 0.013 |
| VP229 BREAST | 1.7 | 2.46 | 3.57 | 3.5 | 1.05 ± 0.052 | 0.995 ± 0.089 | 0.878 ± 0.095 | 0.905 ± 0.13 | 1 ± 0.12 | 0.994 ± 0.055 | 0.947 ± 0.07 | 0.806 ± 0.077 | 0.94 ± 0.022 | 0.729 ± 0.081 | 0.373 ± 0.093 | 0.234 ± 0.019 | 0.254 ± 0.042 | 0.247 ± 0.019 | 0.242 ± 0.025 | 0.19 ± 0.011 |
| YAMATO SYNOVIAL | 4.09 | 1.68 | 4.3 | 2.58 | 1.12 ± 0.074 | 0.741 ± 0.028 | 1.08 ± 0.076 | 0.241 ± 0.015 | 1.22 ± 0.12 | 0.977 ± 0.081 | 1.15 ± 0.053 | 0.352 ± 0.018 | 1.05 ± 0.061 | 0.888 ± 0.05 | 0.345 ± 0.0062 | 0.315 ± 0.0095 | 0.324 ± 0.013 | 0.256 ± 0.014 | 0.279 ± 0.018 | 0.336 ± 0.027 |
